This note sets out measurements from US9592221B2, “Antibacterial agents: aryl myxopyronin derivatives” (priority 2012, dated 2017).

pIC50: −log10 of the molar value.

Assay [1] addresses E. coli RNA polymerase σ^70 holoenzyme (Escherichia coli, UniProt P0A8T7+P0A8V2). The assay is described as follows: Fluorescence-detected RNA polymerase assay, E. coli RNA polymerase. To be noted: read-out: IC50 E. coli RNAP. The assay is classed as biochemical.
Assay [2] deals with S. aureus RNA polymerase core enzyme, S. aureus σ^A (Staphylococcus aureus, UniProt P47768+Q2G0N5). Kind of assay: Fluorescence-detected RNA polymerase assay, S. aureus RNA polymerase. Particulars: read-out: IC50 S. aureus RNAP. The assay is classed as biochemical.
In assay [3] the target is M. tuberculosis RNA polymerase core enzyme, M. tuberculosis σ^A (Mycobacterium tuberculosis, UniProt P9WGY7+P9WGY9). Kind of assay: Fluorescence-detected RNA polymerase assay, M. tuberculosis RNA polymerase. To be noted: read-out: IC50 M. tuberculosis RNAP. The assay is classed as biochemical.
The test system of assay [4] is Staphylococcus aureus ATCC 12600. The assay is described as follows: MIC, spiral gradient endpoint assay, S. aureus ATCC 12600. It is filed as cell-based. Particulars: ATCC12600; Staphylococcus aureus ATCC 12600.
Assay [5] relates to Acinetobacter baumannii ATCC 19606. The assay is described as follows: MIC, spiral gradient endpoint assay, A. baumannii. It is filed as cell-based. To be noted: ATCC19606; Acinetobacter baumannii ATCC 19606.
The subject of assay [6] is Escherichia coli D21f2tolC. Kind of assay: MIC, spiral gradient endpoint assay, E. coli D21f2tolC. To be noted: Escherichia coli, D21F2TOLC, read-out: MIC E. coli D21f2toIC. It is filed as cell-based.
Assay [7] concerns Mycobacterium tuberculosis H37Rv. The assay is described as follows: MIC, microplate Alamar Blue assay, M. tuberculosis. It is filed as cell-based.
The test system of assay [8] is Bacillus anthracis Vollum 1b. The assay is described as follows: microbe, parasite or virus in culture. It is filed as cell-based. Particulars: Bacillus anthracis, VOLLUM1B, read-out: MIC B. anthracis Vollum-1b.
For assay [9], the system named is Francisella tularensis SCHU4. Kind of assay: microbe, parasite or virus in culture. It is filed as cell-based. Particulars: Francisella tularensis, SCHU4, read-out: MIC F. tularensis SCHU4.
The test system of another assay is Yersinia pestis C092. Kind of assay: microbe, parasite or virus in culture. The assay is classed as cell-based. To be noted: Yersinia pestis, C092, read-out: MIC Y. pestis C092.
The subject of another assay is Burkholderia mallei CHN7. Kind of assay: microbe, parasite or virus in culture. Particulars: Burkholderia mallei, CHN7, read-out: MIC B. mallei CHN7. It is filed as cell-based.
For assay [10], the system named is Burkholderia pseudomallei Human/Blood/OH/US/1994. The assay is described as follows: microbe, parasite or virus in culture. To be noted: Burkholderia pseudomallei, read-out: MIC B. pseudomallei Human/Blood/OH. The assay is classed as cell-based.
The subject of another assay is Brucella melitensis 16M. Kind of assay: microbe, parasite or virus in culture. The assay is classed as cell-based. To be noted: Brucella melitensis, 16M, read-out: MIC B. melitensis 16M.

Chain of E. coli RNA polymerase σ^70 holoenzyme (P0A8T7 whole entry): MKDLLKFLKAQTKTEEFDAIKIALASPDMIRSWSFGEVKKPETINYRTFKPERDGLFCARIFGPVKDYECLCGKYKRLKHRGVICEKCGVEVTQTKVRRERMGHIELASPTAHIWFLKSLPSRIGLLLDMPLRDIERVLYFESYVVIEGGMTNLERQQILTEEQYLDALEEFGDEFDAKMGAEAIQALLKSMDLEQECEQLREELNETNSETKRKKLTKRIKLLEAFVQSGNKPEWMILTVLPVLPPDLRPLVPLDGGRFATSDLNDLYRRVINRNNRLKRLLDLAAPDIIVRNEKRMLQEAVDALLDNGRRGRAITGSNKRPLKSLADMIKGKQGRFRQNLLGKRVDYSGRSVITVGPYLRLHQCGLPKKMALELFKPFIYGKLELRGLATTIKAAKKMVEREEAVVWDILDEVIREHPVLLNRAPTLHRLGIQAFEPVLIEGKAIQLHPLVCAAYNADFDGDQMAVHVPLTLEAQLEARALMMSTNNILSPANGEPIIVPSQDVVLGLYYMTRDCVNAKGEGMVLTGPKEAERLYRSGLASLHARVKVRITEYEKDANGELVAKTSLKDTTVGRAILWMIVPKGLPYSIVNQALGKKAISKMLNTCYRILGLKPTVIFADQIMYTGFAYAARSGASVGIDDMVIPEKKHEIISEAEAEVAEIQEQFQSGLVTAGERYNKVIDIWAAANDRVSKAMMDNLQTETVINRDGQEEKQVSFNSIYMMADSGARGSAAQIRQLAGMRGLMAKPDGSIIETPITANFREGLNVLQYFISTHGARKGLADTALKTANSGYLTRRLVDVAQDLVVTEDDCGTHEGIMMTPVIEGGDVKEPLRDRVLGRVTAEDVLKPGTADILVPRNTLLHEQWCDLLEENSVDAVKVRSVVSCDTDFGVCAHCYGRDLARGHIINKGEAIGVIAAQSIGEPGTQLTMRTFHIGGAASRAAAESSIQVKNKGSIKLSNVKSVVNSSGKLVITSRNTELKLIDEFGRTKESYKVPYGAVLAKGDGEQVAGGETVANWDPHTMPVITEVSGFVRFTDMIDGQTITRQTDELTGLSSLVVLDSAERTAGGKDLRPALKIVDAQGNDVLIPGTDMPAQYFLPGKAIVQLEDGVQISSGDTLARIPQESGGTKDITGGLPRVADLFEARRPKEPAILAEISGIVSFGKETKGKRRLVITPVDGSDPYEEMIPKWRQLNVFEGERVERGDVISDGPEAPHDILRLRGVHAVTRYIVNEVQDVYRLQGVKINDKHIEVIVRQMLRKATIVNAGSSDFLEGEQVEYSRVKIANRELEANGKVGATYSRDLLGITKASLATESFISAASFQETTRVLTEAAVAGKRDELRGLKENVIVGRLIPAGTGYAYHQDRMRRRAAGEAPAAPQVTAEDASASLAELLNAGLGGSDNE
Chain of E. coli RNA polymerase σ^70 holoenzyme (P0A800 whole entry, further chain): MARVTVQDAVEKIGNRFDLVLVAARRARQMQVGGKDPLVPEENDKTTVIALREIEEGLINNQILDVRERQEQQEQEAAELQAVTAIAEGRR
Chain of E. coli RNA polymerase σ^70 holoenzyme (P0A8V2 whole entry): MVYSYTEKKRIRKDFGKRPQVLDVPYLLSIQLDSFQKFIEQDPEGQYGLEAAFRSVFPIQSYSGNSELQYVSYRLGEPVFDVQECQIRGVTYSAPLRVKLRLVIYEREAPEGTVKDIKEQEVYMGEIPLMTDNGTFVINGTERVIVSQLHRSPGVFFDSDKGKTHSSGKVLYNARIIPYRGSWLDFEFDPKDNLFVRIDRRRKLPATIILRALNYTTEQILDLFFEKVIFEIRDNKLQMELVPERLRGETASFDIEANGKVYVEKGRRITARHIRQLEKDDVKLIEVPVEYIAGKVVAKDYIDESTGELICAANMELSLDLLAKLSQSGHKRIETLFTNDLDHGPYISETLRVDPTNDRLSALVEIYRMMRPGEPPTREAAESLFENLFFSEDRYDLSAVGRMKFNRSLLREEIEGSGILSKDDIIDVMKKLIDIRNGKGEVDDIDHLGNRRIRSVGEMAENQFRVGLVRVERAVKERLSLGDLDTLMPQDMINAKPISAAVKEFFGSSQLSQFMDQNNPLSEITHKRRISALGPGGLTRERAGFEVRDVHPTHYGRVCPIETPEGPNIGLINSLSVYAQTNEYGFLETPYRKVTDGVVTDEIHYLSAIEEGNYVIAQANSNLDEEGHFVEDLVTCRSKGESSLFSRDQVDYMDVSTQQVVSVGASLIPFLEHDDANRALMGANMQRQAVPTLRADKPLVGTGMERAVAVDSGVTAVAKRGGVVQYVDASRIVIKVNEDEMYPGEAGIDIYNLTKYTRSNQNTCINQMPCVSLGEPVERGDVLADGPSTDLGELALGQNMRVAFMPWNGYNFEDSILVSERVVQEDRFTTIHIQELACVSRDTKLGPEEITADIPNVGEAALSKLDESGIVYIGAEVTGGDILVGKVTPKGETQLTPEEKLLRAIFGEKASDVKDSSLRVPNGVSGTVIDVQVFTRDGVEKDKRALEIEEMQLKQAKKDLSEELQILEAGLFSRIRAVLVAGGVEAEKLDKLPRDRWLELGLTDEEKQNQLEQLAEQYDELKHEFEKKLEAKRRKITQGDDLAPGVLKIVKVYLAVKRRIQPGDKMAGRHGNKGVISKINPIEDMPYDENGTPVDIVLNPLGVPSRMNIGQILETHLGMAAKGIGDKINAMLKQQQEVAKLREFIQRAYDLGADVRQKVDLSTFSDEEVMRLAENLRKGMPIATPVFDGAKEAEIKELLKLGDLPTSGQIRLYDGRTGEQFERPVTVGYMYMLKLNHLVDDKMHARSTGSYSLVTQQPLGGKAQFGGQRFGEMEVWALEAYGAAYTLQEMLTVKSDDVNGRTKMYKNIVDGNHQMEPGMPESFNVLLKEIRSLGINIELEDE
Chain of E. coli RNA polymerase σ^70 holoenzyme (P00579 whole entry, further chain): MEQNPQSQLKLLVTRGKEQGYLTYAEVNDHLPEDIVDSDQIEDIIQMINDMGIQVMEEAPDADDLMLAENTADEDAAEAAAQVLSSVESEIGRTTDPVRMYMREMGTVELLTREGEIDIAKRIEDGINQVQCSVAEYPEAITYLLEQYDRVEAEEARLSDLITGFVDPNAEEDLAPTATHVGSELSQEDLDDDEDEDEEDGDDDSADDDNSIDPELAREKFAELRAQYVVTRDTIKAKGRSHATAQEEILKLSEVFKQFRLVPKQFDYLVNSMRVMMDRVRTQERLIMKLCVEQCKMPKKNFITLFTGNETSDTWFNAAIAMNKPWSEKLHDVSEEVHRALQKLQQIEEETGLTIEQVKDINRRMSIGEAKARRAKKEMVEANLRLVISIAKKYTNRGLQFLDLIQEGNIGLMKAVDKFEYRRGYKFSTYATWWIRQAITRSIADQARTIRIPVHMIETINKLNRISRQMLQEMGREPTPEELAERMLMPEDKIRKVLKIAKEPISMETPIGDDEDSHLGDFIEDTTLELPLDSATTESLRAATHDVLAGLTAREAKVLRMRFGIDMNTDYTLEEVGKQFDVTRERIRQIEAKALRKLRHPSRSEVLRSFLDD
Chain of E. coli RNA polymerase σ^70 holoenzyme (P0A7Z4 whole entry, further chain): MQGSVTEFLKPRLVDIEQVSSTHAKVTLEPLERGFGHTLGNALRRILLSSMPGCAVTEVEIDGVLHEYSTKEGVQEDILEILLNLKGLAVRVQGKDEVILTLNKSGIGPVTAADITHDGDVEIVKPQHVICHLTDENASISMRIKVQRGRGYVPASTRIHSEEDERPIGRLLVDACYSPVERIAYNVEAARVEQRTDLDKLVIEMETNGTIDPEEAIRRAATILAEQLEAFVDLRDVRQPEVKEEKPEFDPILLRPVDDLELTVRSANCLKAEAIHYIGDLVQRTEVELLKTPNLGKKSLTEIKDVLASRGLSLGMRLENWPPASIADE

Usually pIC50 stands for the IC50 on a negative log10 scale, so that one unit is a factor of ten. In the case of `CCCCCCc1ccc(C=C(C)C(=O)c2c(O)cc(C(C)CC/C=C/NC(=O)OC)oc2=O)s1` (mixture of isomers) [APY15, methyl (E)-5-(3-((E/Z)-3-(5-hexylthiophen-2-yl)-2-methylacryloyl)-4-hydroxy-2-oxo-2H-pyran-6-yl)hex-1-enylcarbamate], the pIC50 is 8.30 in [1], 7.70 in [2] and 6.70 in [3]. In addition, the MIC is 0.9 µg/mL in [4]; 6 µg/mL in assay [5]; 0.08 µg/mL in assay [6]; over 50 µg/mL in assay [7]; 0.4 µg/mL in [8]; 0.4 µg/mL in assay [9]. Also, the MIC in the assay with Yersinia pestis C092 was determined as 3 µg/mL; with Burkholderia mallei CHN7, 0.8 µg/mL; in [10], 3 µg/mL; with Brucella melitensis 16M, 0.4 µg/mL.

In the case of `CCCCCCc1ccc(C=C(C)C(=O)c2c(O)cc(C(C)CC/C=C/NC(=O)OC)oc2=O)cc1` (mixture of isomers) [APY33, methyl (E)-5-(3-((E/Z)-3-(4-hexylphenyl)-2-methylacryloyl)-4-hydroxy-2-oxo-2H-pyran-6-yl)hex-1-enylcarbamate], the figures for the pIC50 in assay [1], in assay [2] and in [3] were 8.10, 8.00 and 6.40, respectively. Further, the MIC in assay [4] worked out at 2 µg/mL; in assay [5], 20 µg/mL; in [6], 0.3 µg/mL; in [7] it was 6 µg/mL; in [8], 2 µg/mL; in [9], 3 µg/mL. Besides, the MIC with Yersinia pestis C092 turned out to be 6 µg/mL; in the assay with Burkholderia mallei CHN7 it was 2 µg/mL; in assay [10], 6 µg/mL; in the assay with Brucella melitensis 16M it was 0.4 µg/mL.

In the case of `CCCCCCc1ccc(C=C(C)C(=O)c2c(O)cc(C(C)CC/C=C/NC(=O)OC)oc2=O)o1` (mixture of isomers) [APY17, methyl (E)-5-(3-((E/Z)-3-(5-hexylfuran-2-yl)-2-methylacryloyl)-4-hydroxy-2-oxo-2H-pyran-6-yl)hex-1-enylcarbamate], the pIC50 in assay [1] is 7.70; in [2], 7.00; in [3], 6.05. In addition, the MIC in [4] is 8 µg/mL; in [5] it was 10 µg/mL; in [6], 0.1 µg/mL; in assay [7], 10 µg/mL; in assay [8], 2 µg/mL; in assay [9], 0.8 µg/mL. For the same compound, the MIC with Yersinia pestis C092 was 10 µg/mL; in the assay on Burkholderia mallei CHN7, 3 µg/mL; in assay [10], 30 µg/mL; with Brucella melitensis 16M it was 2 µg/mL.

Consider `CCCCCCc1coc(C=C(C)C(=O)c2c(O)cc(C(C)CC/C=C/NC(=O)OC)oc2=O)c1` (mixture of isomers) [APY19, methyl (E)-5-(3-((E/Z)-3-(4-hexylfuran-2-yl)-2-methylacryloyl)-4-hydroxy-2-oxo-2H-pyran-6-yl)hex-1-enylcarbamate], for which the pIC50 was 8.15 in assay [1], 7.52 in [2] and 6.40 in assay [3]. The MIC in [4] came out at 2 µg/mL; in [5], 10 µg/mL; in assay [6], 0.1 µg/mL; in assay [7], 6 µg/mL; in assay [8], 2 µg/mL; in assay [9], 6 µg/mL. The MIC amounted to 6 µg/mL in the assay with Yersinia pestis C092, 0.8 µg/mL in the assay with Burkholderia mallei CHN7, 3 µg/mL in assay [10] and 0.4 µg/mL in the assay on Brucella melitensis 16M.

For `COC(=O)N/C=C/CCC(C)c1cc(O)c(C(=O)C(C)=Cc2ccc(CCCC3CCCCC3)s2)c(=O)o1` (mixture of isomers) [APY32, methyl (E)-5-(3-((E/Z)-3-(5-(3-cyclohexylpropyl)thiophen-2-yl)-2-methylacryloyl)-4-hydroxy-2-oxo-2H-pyran-6-yl)hex-1-enylcarbamate], the pIC50 in assay [1] was 8.22; in [2], 8.22; in [3], 5.70. In addition, the MIC in assay [4] was over 40 µg/mL; in [5] it was over 40 µg/mL; in assay [6], 0.4 µg/mL; in assay [7], 6 µg/mL; in [8], 2 µg/mL; in assay [9], 0.8 µg/mL. Moreover, the MIC in the assay with Yersinia pestis C092 is over 50 µg/mL; in the assay on Burkholderia mallei CHN7, 2 µg/mL; in assay [10] it was 6 µg/mL; with Brucella melitensis 16M it was 2 µg/mL.

For the compound `CCCCc1ccc2sc(C=C(C)C(=O)c3c(O)cc(C(C)CC/C=C/NC(=O)OC)oc3=O)cc2c1` (mixture of isomers) [APY26, methyl (E)-5-(3-((E/Z)-3-(5-butylbenzo[b]thiophen-2-yl)-2-methylacryloyl)-4-hydroxy-2-oxo-2H-pyran-6-yl)hex-1-enylcarbamate], the pIC50 in [1] was 7.70; in [2], 6.70; in assay [3], 6.00. Also, the MIC is over 40 µg/mL in assay [4]; over 40 µg/mL in [5]; 0.3 µg/mL in assay [6]; 6 µg/mL in [7]; 2 µg/mL in assay [8]; 2 µg/mL in assay [9]. For the same compound, the MIC was over 50 µg/mL in the assay on Yersinia pestis C092, 6 µg/mL in the assay with Burkholderia mallei CHN7, over 50 µg/mL in [10] and 2 µg/mL in the assay on Brucella melitensis 16M.

Turning to `C=CCCc1ccc(C=C(C)C(=O)c2c(O)cc(C(C)CC/C=C/NC(=O)OC)oc2=O)s1` (mixture of isomers) [APY28, methyl (E)-5-(3-((E/Z)-3-(5-(but-3-enyl)thiophen-2-yl)-2-methylacryloyl)-4-hydroxy-2-oxo-2H-pyran-6-yl)hex-1-enylcarbamate], the pIC50 is 7.40 in [1], 7.22 in assay [2] and 6.70 in [3]. For the same compound, the MIC in assay [4] was found to be 2 µg/mL; in assay [5], 30 µg/mL; in assay [6], 0.3 µg/mL; in assay [7] it was 6 µg/mL; in assay [8], 6 µg/mL; in [9], 30 µg/mL. Further, the MIC in the assay with Yersinia pestis C092 was 30 µg/mL; in the assay on Burkholderia mallei CHN7 it was 10 µg/mL; in assay [10], 30 µg/mL; in the assay with Brucella melitensis 16M it was 0.4 µg/mL.

Regarding `CCCCc1ccc2oc(C=C(C)C(=O)c3c(O)cc(C(C)CC/C=C/NC(=O)OC)oc3=O)cc2c1` (mixture of isomers) [APY25, methyl (E)-5-(3-((E/Z)-3-(5-butylbenzofuran-2-yl)-2-methylacryloyl)-4-hydroxy-2-oxo-2H-pyran-6-yl)hex-1-enylcarbamate], the pIC50 in assay [1] is 8.00; in [2] it was 7.15; in [3], 6.22. In addition, the MIC in assay [4] was 3 µg/mL; in [5] it was over 40 µg/mL; in assay [6] it was 0.3 µg/mL; in [7] it was 6 µg/mL; in assay [8], 0.2 µg/mL; in assay [9], 3 µg/mL. In addition, the MIC turned out to be 30 µg/mL in the assay with Yersinia pestis C092, 2 µg/mL with Burkholderia mallei CHN7, 6 µg/mL in assay [10] and 0.8 µg/mL with Brucella melitensis 16M.

`CCCCCCc1csc(C=C(C)C(=O)c2c(O)cc(C(C)CC/C=C/NC(=O)OC)oc2=O)c1` (mixture of isomers) [APY18, methyl (E)-5-(3-((E/Z)-3-(4-hexylthiophen-2-yl)-2-methylacryloyl)-4-hydroxy-2-oxo-2H-pyran-6-yl)hex-1-enylcarbamate]: the pIC50 in [1] is 8.15; in assay [2], 7.15; in [3] it was 6.22. In addition, the MIC turned out to be 4 µg/mL in [4]; 4 µg/mL in [5]; 0.07 µg/mL in [6]; 10 µg/mL in assay [7]; 2 µg/mL in assay [8]; 3 µg/mL in assay [9]. Also, the MIC was determined as 6 µg/mL in the assay with Yersinia pestis C092, 2 µg/mL with Burkholderia mallei CHN7, 6 µg/mL in [10] and 0.8 µg/mL in the assay with Brucella melitensis 16M.

As to `COC(=O)N/C=C/CCC(C)c1cc(O)c(C(=O)C(C)=Cc2ccc(CCC(C)C)s2)c(=O)o1` (mixture of isomers) [APY31, methyl (E)-5-(4-hydroxy-3-((E/Z)-3-(5-isopentylthiophen-2-yl)-2-methylacryloyl)-2-oxo-2H-pyran-6-yl)hex-1-enylcarbamate], the pIC50 is 8.00 in assay [1], 7.30 in assay [2] and 7.70 in assay [3]. Further, the MIC in [4] was 0.4 µg/mL; in assay [5], 6 µg/mL; in [6], under 0.3 µg/mL; in [7], 3 µg/mL; in assay [8] it was 0.4 µg/mL; in assay [9], 6 µg/mL. The MIC in the assay on Yersinia pestis C092 came to 10 µg/mL; with Burkholderia mallei CHN7 it was 2 µg/mL; in [10], 6 µg/mL; with Brucella melitensis 16M, 0.8 µg/mL.
